According to ChEMBL document CHEMBL5108009, “Positron Emission Tomography (PET) Imaging Tracers for Serotonin Receptors” (J Med Chem, 2022):

Tests used:
[1] = biological target: T1, Serotonin 2 (5-HT2) receptor (Homo sapiens, UniProt P41595+P28223+P28335); test: Binding affinity to 5-HT2 receptor (unknown origin) assessed as dissociation constant; type: protein assay
[2] = Drug uptake in cynomolgus monkey frontal cortex administered iv measured as percentage of injected dose by PET imaging relative to control; type: ADME, organism-based, Macaca fascicularis; conditions: in vivo
[3] = Binding affinity to pig 5-HT1B receptor (unknown origin) assessed as inhibition constant
[4] = biological target: T2, 5-hydroxytryptamine receptor 1A (Homo sapiens, UniProt P08908); test: Displacement of [3H]-8-OH-DPAT from 5HT1A receptor (unknown origin)
T2 sequence (P08908 whole entry): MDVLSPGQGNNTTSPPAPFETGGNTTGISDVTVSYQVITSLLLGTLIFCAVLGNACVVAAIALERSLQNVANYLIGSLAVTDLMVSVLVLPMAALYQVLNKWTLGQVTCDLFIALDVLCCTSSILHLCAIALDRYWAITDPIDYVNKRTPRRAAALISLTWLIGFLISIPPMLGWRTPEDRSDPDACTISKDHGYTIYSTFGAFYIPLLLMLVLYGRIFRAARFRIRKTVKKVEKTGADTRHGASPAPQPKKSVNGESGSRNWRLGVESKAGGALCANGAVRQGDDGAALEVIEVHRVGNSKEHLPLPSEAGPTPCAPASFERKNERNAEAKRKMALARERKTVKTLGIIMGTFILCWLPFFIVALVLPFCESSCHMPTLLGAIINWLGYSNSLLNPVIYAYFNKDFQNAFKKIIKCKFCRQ

[5] = Binding affinity to rhesus monkey 5-HT1D receptor assessed as inhibition constant; parameters: species or system Macaca mulatta
[6] = Binding affinity to rhesus monkey 5-HT1B receptor assessed as inhibition constant; parameters: species or system Macaca mulatta
D(2) dopamine receptor [7] = biological target: T3, D(2) dopamine receptor (Rattus norvegicus, UniProt P61169); test: Displacement of [3H]-halopridol from rat striatum D2 receptors
T3 sequence (P61169 whole entry): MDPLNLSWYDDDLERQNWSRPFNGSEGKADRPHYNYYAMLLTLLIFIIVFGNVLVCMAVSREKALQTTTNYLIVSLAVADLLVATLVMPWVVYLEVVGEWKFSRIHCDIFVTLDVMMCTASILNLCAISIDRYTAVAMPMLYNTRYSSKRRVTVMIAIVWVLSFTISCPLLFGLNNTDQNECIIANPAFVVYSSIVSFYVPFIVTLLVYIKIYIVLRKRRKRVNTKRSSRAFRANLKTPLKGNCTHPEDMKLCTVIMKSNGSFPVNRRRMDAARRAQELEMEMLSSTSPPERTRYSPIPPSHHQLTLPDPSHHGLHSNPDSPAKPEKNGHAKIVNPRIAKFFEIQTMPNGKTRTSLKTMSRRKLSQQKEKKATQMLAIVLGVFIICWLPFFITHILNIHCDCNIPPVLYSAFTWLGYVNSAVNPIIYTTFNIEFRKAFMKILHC

[8] = biological target: T4, Alpha-1A adrenergic receptor (Rattus norvegicus, UniProt P43140); test: Displacement of [3H]-WB4101 from rat forebrain alpha 1 adrenergic receptors; type: tissue-based
T4 sequence (P43140 whole entry): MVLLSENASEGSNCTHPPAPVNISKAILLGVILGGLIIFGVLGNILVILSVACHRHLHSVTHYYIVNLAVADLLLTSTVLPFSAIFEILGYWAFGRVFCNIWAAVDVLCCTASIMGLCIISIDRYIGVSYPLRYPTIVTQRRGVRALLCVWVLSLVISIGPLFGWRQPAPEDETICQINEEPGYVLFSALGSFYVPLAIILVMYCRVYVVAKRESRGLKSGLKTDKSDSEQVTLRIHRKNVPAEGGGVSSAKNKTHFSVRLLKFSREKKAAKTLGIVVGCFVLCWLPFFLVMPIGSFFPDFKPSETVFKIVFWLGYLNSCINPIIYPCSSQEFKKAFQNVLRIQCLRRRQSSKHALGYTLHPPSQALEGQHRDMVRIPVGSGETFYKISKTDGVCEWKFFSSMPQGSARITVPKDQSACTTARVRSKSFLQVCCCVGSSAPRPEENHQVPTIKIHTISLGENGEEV

D(2) dopamine receptor [9] = biological target: T3, D(2) dopamine receptor; test: Displacement of [3H]-spiperone from rat striatum D2 receptor
[10] = biological target: 5-hydroxytryptamine receptor 2A (Rattus norvegicus, UniProt P14842); test: Binding affinity to rat frontal cortex homogenate 5-HT2A by ketanserin assay; type: tissue-based
Sequence of 5-hydroxytryptamine receptor 2A (Rattus norvegicus, UniProt P14842) (P14842 whole entry): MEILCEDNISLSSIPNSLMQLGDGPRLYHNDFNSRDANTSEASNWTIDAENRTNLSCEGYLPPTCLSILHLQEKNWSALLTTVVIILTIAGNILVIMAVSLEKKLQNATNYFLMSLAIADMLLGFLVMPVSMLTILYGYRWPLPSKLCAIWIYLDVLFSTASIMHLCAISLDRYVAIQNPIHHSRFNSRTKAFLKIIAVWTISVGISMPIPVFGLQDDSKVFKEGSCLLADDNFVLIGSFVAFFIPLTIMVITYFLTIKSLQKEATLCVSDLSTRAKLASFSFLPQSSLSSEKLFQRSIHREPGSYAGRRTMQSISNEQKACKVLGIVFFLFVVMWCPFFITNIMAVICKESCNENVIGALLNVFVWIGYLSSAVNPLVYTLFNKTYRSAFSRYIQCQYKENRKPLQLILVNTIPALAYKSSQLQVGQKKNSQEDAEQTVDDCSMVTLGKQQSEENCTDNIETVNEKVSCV

[11] = biological target: Serotonin 2 (5-HT2) receptor (Rattus norvegicus, UniProt P30994+P08909+P14842); test: Displacement of [3H]-spiperone from rat frontal cortex 5-HT2 receptor; type: tissue-based
[12] = biological target: 5-hydroxytryptamine receptor 2A (Homo sapiens, UniProt P28223); test: Binding affinity to human frontal cortex homogenate 5-HT2A by ketanserin assay; type: tissue-based
Sequence of 5-hydroxytryptamine receptor 2A (Homo sapiens, UniProt P28223) (P28223 whole entry): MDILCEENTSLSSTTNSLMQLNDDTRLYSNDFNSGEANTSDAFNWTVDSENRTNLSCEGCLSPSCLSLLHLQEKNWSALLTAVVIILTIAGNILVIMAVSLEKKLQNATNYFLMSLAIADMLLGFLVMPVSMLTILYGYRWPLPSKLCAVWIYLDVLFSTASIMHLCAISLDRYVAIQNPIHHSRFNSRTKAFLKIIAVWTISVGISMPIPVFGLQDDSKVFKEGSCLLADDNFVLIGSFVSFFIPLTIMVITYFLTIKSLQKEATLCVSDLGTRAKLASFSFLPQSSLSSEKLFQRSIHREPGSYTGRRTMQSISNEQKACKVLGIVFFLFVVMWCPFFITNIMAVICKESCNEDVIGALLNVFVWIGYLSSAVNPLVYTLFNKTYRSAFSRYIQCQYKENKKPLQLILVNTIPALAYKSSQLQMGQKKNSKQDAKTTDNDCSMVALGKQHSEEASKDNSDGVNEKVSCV

[13] = biological target: T4, Alpha-1A adrenergic receptor; test: Displacement of [3H]prazosin from rat cerebral cortex alpha1 adrenergic receptor; type: tissue-based
[14] = biological target: T2, 5-hydroxytryptamine receptor 1A; test: Inhibition of 5-HT1A receptor (unknown origin)
[15] = biological target: T2, 5-hydroxytryptamine receptor 1A
[16] = biological target: T4, Alpha-1A adrenergic receptor; test: Binding affinity to rat forebrain homogenate membrane alpha 1 adrenergic receptor incubated for 10 mins; type: cell membranes
Histamine H1 receptor = Histamine H1 receptor (Cavia porcellus, UniProt P31389); test: Binding affinity to guinea pig cerebellum homogenate membrane H1 receptor incubated for 30 mins; type: cell membranes
Sequence of Histamine H1 receptor (P31389 whole entry): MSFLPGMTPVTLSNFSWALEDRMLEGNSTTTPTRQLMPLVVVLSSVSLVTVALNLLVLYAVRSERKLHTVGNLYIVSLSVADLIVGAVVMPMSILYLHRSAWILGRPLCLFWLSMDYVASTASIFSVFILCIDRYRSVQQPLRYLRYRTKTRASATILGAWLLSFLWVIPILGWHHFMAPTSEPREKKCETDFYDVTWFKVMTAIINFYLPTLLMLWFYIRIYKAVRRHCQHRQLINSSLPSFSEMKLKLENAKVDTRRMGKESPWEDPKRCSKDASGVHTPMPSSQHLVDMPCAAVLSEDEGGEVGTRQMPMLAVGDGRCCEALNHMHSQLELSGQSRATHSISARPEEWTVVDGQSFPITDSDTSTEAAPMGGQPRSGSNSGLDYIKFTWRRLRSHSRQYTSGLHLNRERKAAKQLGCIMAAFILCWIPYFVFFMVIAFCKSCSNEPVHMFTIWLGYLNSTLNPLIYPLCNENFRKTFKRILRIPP

D(2) dopamine receptor [17] = biological target: T3, D(2) dopamine receptor; test: Binding affinity to rat striatum homogenate membrane D2 receptor incubated for 10 mins; type: cell membranes
[18] = biological target: T1, Serotonin 2 (5-HT2) receptor; test: Binding affinity to cerebrum 5-HT2 receptor (unknown origin); type: tissue-based
[19] = Ratio of drug uptake in human frontal cortex to cerebellum at 15 mCi measured after 60 mins postinjection by PET imaging; type: ADME, organism-based, Brain frontal cortex/cerebellum; conditions: in vivo, 1 h
[20] = Ratio of drug uptake in human frontal cortex to cerebellum at 15 mCi measured after 30 mins postinjection by PET imaging; type: ADME, organism-based, Brain frontal cortex/cerebellum; conditions: in vivo, 0.5 h
[21] = Binding affinity to rat cerebral cortex homogenate 5-HT1A receptor assessed as inhibition constant; type: tissue-based
[22] = Drug uptake in rat brain; type: ADME, tissue-based; conditions: in vivo
[23] = Drug uptake in monkey brain measured after 7 mins postinjection; type: ADME, organism-based, Macaca mulatta; conditions: rhesus monkey, in vivo

## CN(C)CCO/N=C(/C=C/c1ccc(O)cc1)c1ccccc1F [EPLIVANSERIN]
[1]
  Kd: 1.2 nM

## CCC(=O)N1CCN(c2ccc(NC(=O)c3cc(=O)c4cc(F)cc(N5CCN([11CH3])CC5)c4o3)cc2)CC1
[2]
  Drug uptake: 0.7%
[3]
  Ki: 2 nM

## CSc1cccc(C(=O)NC[C@@H]2CCCN2CCc2ccccc2)c1
[4]
  Ki: 4.3 nM

## COC(C)(C)c1ccc(N2CC[C@@H](Cc3ccccc3N3CCN(C)CC3)C2=O)cc1
[5]
  Ki: 12 nM
[6]
  Ki: 1.2 nM

## O=C(c1ccc(F)cc1)C1CCN(CCn2c(=S)[nH]c3ccccc3c2=O)CC1 [ALTANSERIN]
D(2) dopamine receptor [7]
  Ki: 62 nM
[8]
  Ki: 5 nM

## CN1CN(c2ccccc2)C2(CCN(CCCC(=O)c3ccc(F)cc3)CC2)C1=O [MESPIPERONE]
D(2) dopamine receptor [9]
  IC50: 0.23 nM
[10]
  Ki: 0.5 nM
[11]
  IC50: 1.3 nM
[12]
  Ki: 8.8 nM
[13]
  IC50: 10.1 nM

## CCCN(CCC)C1CCc2ccc3[nH]cc(C=O)c3c2C1 (stereo not given)
[14]
  IC50: 1.2 nM
[15]
  Ki: 1.2 nM

## O=C(c1ccc(F)cc1)C1CCN(CCn2c(=O)[nH]c3ccccc3c2=O)CC1 [KETANSERIN]
[16]
  Ki: 10 nM
Histamine H1 receptor
  Ki: 10 nM
D(2) dopamine receptor [17]
  Ki: 220 nM

## CCN(CC)C(=O)[C@@H]1C=C2c3cccc4c3c(c(Br)n4[11CH3])CC2N(C)C1 (stereo not given in full)
[18]
  Ki: 0.5 nM
[19]
  Ratio: 2.7
[20]
  Ratio: 1.7

## O=S1(=O)c2cccc3cccc(c23)N1CCCN1CCN(c2ccc(F)cc2)CC1 [FANANSERIN]
[21]
  Ki: 70 nM

## [11CH3]Oc1ccc2cccc(N3CCN(CCNC(=O)c4ccc(F)cc4)CC3)c2c1
[22]
  SUV: 2
[23]
  SUV: 7
[15]
  Ki: 0.98 nM
